Measurements taken from patent publication US20250381190A1, “THERAPEUTIC COMBINATIONS OF CAPIVASERTIB AND VENETOCLAX” (AstraZeneca AB, priority 2022, published 2025).

Legend:
[1] = Tolerability (body weight change) in SUDHL4 tumor-bearing mice; assay type: in vivo, female CB.17 SCID mice; conditions: Study 1
Protocol: (§1) For the experiments described below, SUDHL4 human GCB-DLBCL tumor cells (10×10^6/mouse) were implanted subcutaneously into female CB.17 SCID mice. Mice were randomized into groups of 5 for efficacy and tolerability assessments based on tumor volume and treated with either vehicles (10% DMSO/25% Kleptose pH=5 (Vehicle 1) and 10% ethanol/30% PEG 400/60% Phosal PG-50 (Vehicle 2)), 130 mg/kg or 45 mg/kg capivasertib, 100 mg/kg venetoclax or the combination of capivasertib and venetoclax. Capivasertib was formulated in 10% DMSO/25% Kleptose pH=5 and venetoclax was formulated in 10% ethanol/30% PEG 400/60% Phosal PG-50. All agents were dosed by oral gavage at a 5 ml/kg dose volume according to schedules described, following tumor cell implantation. Tumor length and width was measured by caliper and tumor volume was calculated using the formula (length×width^2)*π/6.

DLBCL cell lines = experiment: In vitro activity against DLBCL cell lines; assay type: cell-based; conditions: used individually
[2] = test system: SUDHL4 human GCB-DLBCL tumor cells; experiment: SUDHL4 xenograft efficacy (tumor volume, TGI, regression); assay type: in vivo, female CB.17 SCID mice; conditions: Study 1
Protocol: as §1

[3] = capivasertib 130 mg/kg PO BID 10/14 4 days on/3 days off x 22 days
[4] = venetoclax 100 mg/kg PO QD (continuous) x 22 days

In the case of `NC1(C(=O)N[C@@H](CCO)c2ccc(Cl)cc2)CCN(c2ncnc3[nH]ccc23)CC1` [Capivasertib, (S)-4-amino-N-(1-(4-chlorophenyl)-3-hydroxypropyl)-1-(7H-pyrrolo[2,3-d]pyrimidin-4-yl)piperidine-4-carboxamide], the “Max avg body weight loss” value [1, 3] is reported as 6%, the “Activity against DLBCL cell lines” value (DLBCL cell lines) is reported as “have activity” and the Regression [2, 3] is reported as 0%. The TGI [2, 3] was 82% and the TGI ([2]; capivasertib 130 mg/kg PO BID 10/14 4 days on/3 days off x 22 days, listed as capivasertib) was 82%.

With `CC1(C)CCC(CN2CCN(c3ccc(C(=O)NS(=O)(=O)c4ccc(NCC5CCOCC5)c([N+](=O)[O-])c4)c(Oc4cnc5[nH]ccc5c4)c3)CC2)=C(c2ccc(Cl)cc2)C1` [Venetoclax, 4-(4-{[2-(4-chlorophenyl)-4,4-dimethylcyclohex-1-en-1-yl]methyl}piperazin-1-yl)-N-({3-nitro-4-[(tetrahydro-2H-pyran-4-ylmethyl)amino]phenyl}sulfonyl)-2-(1H-pyrrolo[2,3-b]pyridin-5-yloxy)benzamide] the “Max avg body weight loss” value [1, 4] was 2%, the “Activity against DLBCL cell lines” value (DLBCL cell lines) was “have activity” and the Regression [2, 4] was 0%. It also gave a TGI [2, 4] of 42% and a TGI ([2]; venetoclax 100 mg/kg PO QD (continuous) x 22 days, listed as venetoclax) of 42%.
